The results in this text go back to paper PMC10786919, “Design-rules for stapled peptides with in vivo activity and their application to Mdm2/X antagonists” (Nature Communications, 2024).

≈ marks a conversion by molar mass, not a printed value. Read-outs that look alike come from different tables or passages of the source. Positions of bridges follow the written chain, without caps; N, C: chain ends. Non-standard residues stand in square brackets, D forms with d. Residues, ends and D or L forms follow the SMILES beside them. Lys(N3) = [N-]=[N+]=NCCCC[C@H](N)C(=O)O; R8 = C=CCCCCCC[C@@](C)(N)C(=O)O; Cba = N[C@@H](CC1CCC1)C(=O)O; S5 = C=CCCC[C@](C)(N)C(=O)O; Ahx = NCCCCCC(=O)O; βAla = NCCC(=O)O

As a reminder, the EC50 is the concentration giving half of the maximal effect. What is called logD is the decadic logarithm of the distribution of all forms, ionised or not, between an organic phase and buffer at a given pH. Read a high logD as higher lipophilicity.

Data set [1] is described as follows: Solubility assay (kinetic solubility, PBS pH 7). It is filed as physicochemical. Particulars: pH 7, PBS; for solubility kinetic: pH 7, aqueous buffer, kinetic from dmso stock, read-out: Solubility. The protocol:
The standard reference solutions were prepared by diluting the 10 mM stock in 10:80:10 solution of acetonitrile:methanol:DMSO to 100 µM.
The solubility value is calculated by the following equation:
Solubility [µM] = (Peak area of sample/ Peak area of standard) (Standard concentration)

Data set [2] can be described thus: in vitro. The source says: Further, there have been several literature reports[18]–[20] that highlight that the combination of hydrophobic character and positive charge can result in mast cell degranulation (MCD), a potentially fatal condition[18]–[20]. […] The NanoClick assay[22] determines permeability of azide-labeled peptides by combining intracellular copper-free click chemistry with NanoBRET technology. Specifically, if an azido-peptide achieves cytosolic exposure, it will react with a cyclooctyne-decorated Halotag construct that is fused with nanoluciferase. This reaction blocks the click labelling of a subsequently added azido-labeled acceptor dye, thus decreasing the NanoBRET signal in a manner that is target-binding agnostic.
This assay was previously described in detail. The assay was performed in 384-well white assay plates (PerkinElmer CUSG03874) using assay-ready frozen cells that had been transiently transfected with the NanoLuc-HaloTag vector that were thawed at plated in complete media at a density of 6000 cells/ well and incubated at 37 °C 5% CO2 overnight. DIBAC-CA was diluted in assay buffer (OptiMem without phenol red + 1% FBS) and added to cells at a final concentration of 3 μM and incubated at 37 °C 5% CO2 for 1 h. Cells were subsequently centrifuged using a BlueWasher instrument (Blue Cat Bio) to remove the DIBAC-CA solution and washed two times with HBSS (Ca2 + , Mg2 + ). A volume of 30 μL of assay buffer was added back to cell plates. Peptides were serially diluted 4-fold in DMSO with a Hamilton Star apparatus and then delivered into assay plates with an acoustic liquid handler Labcyte ECHO (300 nl, 1% DMSO in-well concentration). After incubating cells with peptide for the desired time (4 or 18 h), the HaloTag ligand, NanoBret618-azide, was added to each well at a final concentration of 10 μM. […] Following addition of NanoBRET Nano-Glo Substrate, donor emission (450 nm) and acceptor emission (610 nm) were measured using an Envision instrument (PerkinElmer).

Data set [3] in a line: Experimental LogD (partition coefficient). The settings on record: for logD: not stated, Partition Coeff LogD.
Data set [4] can be described thus: Lactate dehydrogenase (LDH) release assay. It is filed as cell-based. Summed up: (§1)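 LDH release, fluorometric membrane-integrity read-out; HCT116 with stable p53-responsive β-lactamase reporter; 8000 cells/well; 0.5% DMSO final; geometric mean, n≥3 biological replicates.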
Data set [5] relates to HCT116 cells. Description: Lactate dehydrogenase (LDH) release assay. The data set is classed as cell-based. Summed up:
as §1

Where [6] appears, read: Nanoclick permeability assay EC50.

Consider `CC[C@H](C)[C@H](NC(=O)[C@H](CC(C)C)NC(=O)[C@H](Cc1ccccc1)NC(=O)[C@@H](N)Cc1ccccc1)C(=O)N1CCC[C@H]1C(=O)N[C@@H](CCCCN)C(=O)NCC(=O)N[C@@H](CCCNC(=N)N)C(=O)N[C@@H](CCCNC(=N)N)C(=O)N[C@@H](CCCNC(=N)N)C(=O)N[C@@H](CCCNC(=N)N)C(=O)N[C@@H](CCCNC(=N)N)C(=O)N[C@@H](CCCNC(=N)N)C(=O)N[C@@H](CCCNC(=N)N)C(=O)N[C@@H](CCCNC(=N)N)C(=O)N[C@@H](CCCNC(=N)N)C(=O)N[C@@H](CCCCN=[N+]=[N-])C(=O)NCCC(=O)N[C@@H](CC(C)C)C(=O)N[C@H](C(=O)N[C@@H](Cc1ccccc1)C(=O)N[C@]1(C)CCCCCCC=CCCC[C@@](C)(C(=O)N[C@@H](CO)C(=O)N[C@@H](C)C(=O)N[C@@H](C)C(N)=O)NC(=O)[C@H](CC2CCC2)NC(=O)[C@H](CCC(N)=O)NC(=O)[C@H](C)NC(=O)[C@H](Cc2c[nH]c3ccccc23)NC(=O)[C@H](Cc2ccc(O)cc2)NC(=O)[C@H](CCC(=O)O)NC1=O)[C@@H](C)O` [MP-656] (H-FFLIPKGRRRRRRRRR[Lys(N3)][βAla]LTF[R8]EYWAQ[Cba][S5]SAA-NH2; staple 22-29), for which the Solubility result in data set [1] is listed as “Poorly Behaved”. In addition, the cell entry EC50 in data set [2] (setting [6]) is 0.544 µM. Further, in data set [3], the “Partition Coeff LogD” value is given as “Poorly Behaved”.

In data set [4] (LDH: Cytotoxicity assay: EC50), `CC(=O)N[C@@H](CCCNC(=N)N)C(=O)NCCC(=O)N[C@@H](CCCCN=[N+]=[N-])C(=O)N[C@@H](CC(C)C)C(=O)N[C@H](C(=O)N[C@@H](Cc1ccccc1)C(=O)N[C@]1(C)CCCCCCC=CCCC[C@@](C)(C(=O)N[C@@H](CO)C(=O)N[C@@H](C)C(=O)N[C@@H](C)C(N)=O)NC(=O)[C@H](CC2CCC2)NC(=O)[C@H](CCC(N)=O)NC(=O)[C@H](C)NC(=O)[C@H](Cc2c[nH]c3ccccc23)NC(=O)[C@H](Cc2ccc(O)cc2)NC(=O)[C@H](CCC(=O)O)NC1=O)[C@@H](C)O` [MP-4004] showed a concentration for a half-maximal effect (EC50) above 50 µM. For the same compound, the “LDH: Cytotoxicity assay: % Effect” value in data set [5] was found to be 7.573%. Moreover, the Solubility entry in data set [1] is “Poorly Behaved”. Moreover, in data set [3], the “Partition Coeff LogD” value is reported as “Poorly Behaved”.

In data set [4] (LDH: Cytotoxicity assay: EC50), `CC(=O)N[C@@H](CCCCN=[N+]=[N-])C(=O)NCCC(=O)N[C@@H](CC(C)C)C(=O)N[C@H](C(=O)N[C@@H](Cc1ccccc1)C(=O)N[C@]1(C)CCCCCCC=CCCC[C@@](C)(C(=O)N[C@@H](CO)C(=O)N[C@@H](C)C(=O)N[C@@H](CCCNC(=N)N)C(N)=O)NC(=O)[C@H](CC2CCC2)NC(=O)[C@H](CCC(N)=O)NC(=O)[C@H](C)NC(=O)[C@H](Cc2c[nH]c3ccccc23)NC(=O)[C@H](Cc2ccc(O)cc2)NC(=O)[C@H](CCC(=O)O)NC1=O)[C@@H](C)O` [MP-480] (Ac-[Lys(N3)][βAla]LTF[R8]EYWAQ[Cba][S5]SAR-NH2; staple 6-13) gave a concentration giving a half-maximal response (EC50) above 50 µM. In data set [2] (setting [6]), the cell entry EC50 was 0.1 µM.

As to `CC(C)C[C@@H]1NC(=O)[C@H](C)NC(=O)[C@H](Cc2c[nH]c3ccccc23)NC(=O)[C@H](Cc2ccc(O)cc2)NC(=O)[C@H](CCC(=O)O)NC(=O)[C@](C)(NC(=O)[C@H](Cc2ccccc2)NC(=O)[C@H](CO)NC(=O)[C@@H](NC(=O)CNC(=O)[C@H](CO)NC(=O)CNC(=O)[C@@H](N)CCCCN=[N+]=[N-])[C@@H](C)O)CCCCCCC=CCCC[C@@](C)(C(=O)N[C@@H](CCC(=O)O)C(N)=O)NC(=O)[C@H](CC(C)C)NC1=O` [MP-011], the EC50 in data set [4] (LDH: Cytotoxicity assay: EC50) is above 50 µM. For the same compound, the “LDH: Cytotoxicity assay: % Effect” value in data set [5] is recorded as 18.05%. The solubility kinetic in data set [1] came to 23 µM (≈ 43.8 µg/mL). For the same compound, the logD in data set [3] turned out to be 2.05.

For `CC(=O)N[C@@H](CCCCN=[N+]=[N-])C(=O)NCCC(=O)N[C@@H](CC(C)C)C(=O)N[C@H](C(=O)N[C@@H](Cc1ccccc1)C(=O)N[C@]1(C)CCCCCCC=CCCC[C@@](C)(C(=O)N[C@@H](C)C(=O)N[C@@H](C)C(=O)N[C@@H](C)C(=O)O)NC(=O)[C@H](CC2CCC2)NC(=O)[C@H](CCC(N)=O)NC(=O)[C@H](C)NC(=O)[C@H](Cc2c[nH]c3ccccc23)NC(=O)[C@H](Cc2ccc(O)cc2)NC(=O)[C@H](CCC(=O)O)NC1=O)[C@@H](C)O` [MP-684], the EC50 in data set [4] (0% FBS 4Hr, read-out: LDH: Cytotoxicity assay: EC50) is above 50.7 µM; in data set [4] (10% FBS 16Hr, read-out: LDH: Cytotoxicity assay: EC50) it was above 50.7 µM. Also, the cell entry EC50 in data set [2] was found to be 0.496 µM.

With `CC(=O)N[C@@H](CCCCN=[N+]=[N-])C(=O)NCCC(=O)N[C@@H](CC(C)C)C(=O)N[C@H](C(=O)N[C@@H](Cc1ccccc1)C(=O)N[C@]1(C)CCCCCCC=CCCC[C@@](C)(C(=O)N[C@@H](C)C(=O)N[C@@H](C)C(=O)N[C@@H](CCC(=O)O)C(=O)N[C@@H](C)C(=O)N[C@@H](C)C(=O)N[C@H](C)C(N)=O)NC(=O)[C@H](CC2CCC2)NC(=O)[C@H](CCC(N)=O)NC(=O)[C@H](C)NC(=O)[C@H](Cc2c[nH]c3ccccc23)NC(=O)[C@H](Cc2ccc(O)cc2)NC(=O)[C@H](CCC(=O)O)NC1=O)[C@@H](C)O` [MP-833] (Ac-[Lys(N3)][βAla]LTF[R8]EYWAQ[Cba][S5]AAEAA[dA]-NH2; staple 6-13), the EC50 is above 50.7 µM in data set [4] (0% FBS 4Hr, read-out: LDH: Cytotoxicity assay EC50) and above 50.7 µM in data set [4] (10% FBS 16Hr, read-out: LDH: Cytotoxicity assay EC50). Besides, the “LDH: Cytotoxicity assay % Effect” value in data set [5] (0% FBS 4Hr) was found to be 3.813%; in data set [5] (10% FBS 16Hr), 10.68%. Besides, in data set [1], the solubility kinetic was 154 µM (≈ 343 µg/mL). Besides, the cell entry EC50 in data set [2] came to 1.02 µM.

On to `CC(=O)N[C@@H](CCCCN=[N+]=[N-])C(=O)N[C@@H](CCCNC(=N)N)C(=O)N[C@@H](CCCNC(=N)N)C(=O)NCCCCCC(=O)N[C@H](C(=O)N[C@@H](CO)C(=O)N[C@@H](Cc1ccccc1)C(=O)N[C@]1(C)CCCCCCC=CCCC[C@@](C)(C(=O)N[C@@H](CCC(=O)O)C(=O)N[C@@H](CC(N)=O)C(=O)N[C@@H](Cc2ccccc2)C(N)=O)NC(=O)[C@H](CC(C)C)NC(=O)[C@H](CC(C)C)NC(=O)[C@H](C)NC(=O)[C@H](Cc2c[nH]c3ccccc23)NC(=O)[C@H](Cc2ccc(O)cc2)NC(=O)[C@H](CCC(=O)O)NC1=O)[C@@H](C)O` [MP-083] (Ac-[Lys(N3)]RR[Ahx]TSF[R8]EYWALL[S5]ENF-NH2; staple 8-15), for which, in data set [4] (LDH: Cytotoxicity assay EC50), the concentration giving a half-maximal response (EC50) is above 50 µM. Besides, the “LDH: Cytotoxicity assay % Effect” value in data set [5] was 0.165%. Further, the solubility kinetic in data set [1] came to 4 µM (≈ 9.73 µg/mL). The log distribution coefficient (logD) in data set [3] is 2.54.

`CC(=O)N[C@@H](CCCNC(=N)N)C(=O)N[C@@H](CCCNC(=N)N)C(=O)NCCCCCC(=O)N[C@@H](CCCCN=[N+]=[N-])C(=O)N[C@@H](CC(C)C)C(=O)N[C@H](C(=O)N[C@@H](Cc1ccccc1)C(=O)N[C@]1(C)CCCCCCC=CCCC[C@@](C)(C(=O)N[C@@H](CO)C(=O)N[C@@H](C)C(=O)N[C@@H](C)C(N)=O)NC(=O)[C@H](CC2CCC2)NC(=O)[C@H](CCC(N)=O)NC(=O)[C@H](C)NC(=O)[C@H](Cc2c[nH]c3ccccc23)NC(=O)[C@H](Cc2ccc(O)cc2)NC(=O)[C@H](CCC(=O)O)NC1=O)[C@@H](C)O` [MP-007] had an EC50 in data set [4] (LDH: Cytotoxicity assay: EC50) above 50 µM. Besides, the “LDH: Cytotoxicity assay: % Effect” value in data set [5] was 23.39%. Moreover, in data set [1], the solubility kinetic came out at 37 µM (≈ 86 µg/mL). In data set [3], this compound gave a log distribution coefficient (logD) of 2.83.
